# Biological target: T1, ΔF508-CFTR (Homo sapiens, UniProt P13569, DEL508-508)
# T1 construct: expressed in transfected cells
# Test: Membrane potential optical (FRET/VIPR) assay, identification of potentiator compounds
# Format: cell-based
# Details: Table 3, assay not given; for % Activity: relative efficacy
# Method in brief: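 NIH3T3 mouse fibroblasts stably expressing ΔF508-CFTR, temperature-corrected 24 h at 27° C., read on VIPR by FRET between CC2-DMPE and DiSBAC2(3). Potentiators identified in a double-addition format, first adding chloride-free (gluconate) medium with or without compound.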
# T1 sequence (P13569 with tags, fused parts or gaps DEL508-508): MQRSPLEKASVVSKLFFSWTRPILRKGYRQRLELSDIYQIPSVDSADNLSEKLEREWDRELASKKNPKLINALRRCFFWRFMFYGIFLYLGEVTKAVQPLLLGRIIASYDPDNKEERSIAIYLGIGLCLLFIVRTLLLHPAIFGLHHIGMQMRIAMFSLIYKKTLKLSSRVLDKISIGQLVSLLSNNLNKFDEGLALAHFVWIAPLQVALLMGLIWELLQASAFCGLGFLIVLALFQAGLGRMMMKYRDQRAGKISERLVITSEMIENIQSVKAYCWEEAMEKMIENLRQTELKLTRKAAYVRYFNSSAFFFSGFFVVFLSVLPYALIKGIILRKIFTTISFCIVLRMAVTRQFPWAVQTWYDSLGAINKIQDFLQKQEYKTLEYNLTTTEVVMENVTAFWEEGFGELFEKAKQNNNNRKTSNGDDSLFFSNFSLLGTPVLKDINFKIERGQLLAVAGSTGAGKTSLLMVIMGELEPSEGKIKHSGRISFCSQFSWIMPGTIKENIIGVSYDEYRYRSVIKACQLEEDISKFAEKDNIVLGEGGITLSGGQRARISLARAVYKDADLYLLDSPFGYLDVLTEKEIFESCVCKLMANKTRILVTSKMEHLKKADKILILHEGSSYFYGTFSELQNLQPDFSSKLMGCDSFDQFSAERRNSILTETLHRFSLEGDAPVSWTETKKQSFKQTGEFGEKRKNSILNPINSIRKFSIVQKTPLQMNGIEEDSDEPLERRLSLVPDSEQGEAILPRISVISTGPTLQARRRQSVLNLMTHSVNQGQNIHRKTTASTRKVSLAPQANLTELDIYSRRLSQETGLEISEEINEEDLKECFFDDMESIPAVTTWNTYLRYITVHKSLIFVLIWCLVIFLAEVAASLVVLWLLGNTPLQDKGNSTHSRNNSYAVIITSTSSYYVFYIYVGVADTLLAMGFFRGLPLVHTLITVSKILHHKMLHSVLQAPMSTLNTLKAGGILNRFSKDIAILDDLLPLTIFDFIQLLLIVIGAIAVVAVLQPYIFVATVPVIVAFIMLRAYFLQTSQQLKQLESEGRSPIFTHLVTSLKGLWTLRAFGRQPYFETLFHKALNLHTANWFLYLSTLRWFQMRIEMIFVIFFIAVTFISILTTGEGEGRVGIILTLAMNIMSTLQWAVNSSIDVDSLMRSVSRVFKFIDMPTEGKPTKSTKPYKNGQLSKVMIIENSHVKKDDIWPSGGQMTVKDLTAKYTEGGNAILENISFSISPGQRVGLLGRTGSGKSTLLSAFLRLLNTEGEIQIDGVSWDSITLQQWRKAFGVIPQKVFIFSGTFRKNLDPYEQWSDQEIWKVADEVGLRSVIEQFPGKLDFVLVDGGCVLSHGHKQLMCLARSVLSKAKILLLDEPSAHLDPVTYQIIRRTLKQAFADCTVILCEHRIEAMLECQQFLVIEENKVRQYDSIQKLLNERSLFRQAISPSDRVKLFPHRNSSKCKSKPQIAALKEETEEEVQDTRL
smiles,measurement,value
"Cc1ccccc1NC(=O)c1c[nH]c2ccccc2c1=O [Compound 459, N-(o-tolyl)-4-oxo-1H-quinoline-3-carboxamide]",EC50,< 10 µM
same,% Activity,++ (between 25% to 100%)
"CCCCOC(=O)NCC(C)(C)c1ccc(NC(=O)c2c[nH]c3ccccc3c2=O)cc1 [Compound 460, [2-methyl-2-[4-[(4-oxo-1H-quinolin-3-yl)carbonylamino]phenyl]-propyl]aminoformic acid butyl ester]",EC50,< 10 µM
same,% Activity,++ (between 25% to 100%)
"O=C(Nc1ccccc1-c1ccccc1)c1c[nH]c2ccccc2c1=O [Compound 461, 4-oxo-N-(2-phenylphenyl)-1H-quinoline-3-carboxamide]",EC50,< 10 µM
same,% Activity,++ (between 25% to 100%)
"CCCc1ccc(NC(=O)c2c[nH]c3ccccc3c2=O)cc1N(C)C [Compound 462, N-(3-dimethylamino-4-propyl-phenyl)-4-oxo-1H-quinoline-3-carboxamide]",% Activity,++ (between 25% to 100%)
"CCc1ccc(NC(=O)c2c[nH]c3ccccc3c2=O)cc1 [Compound 463, N-(4-ethylphenyl)-4-oxo-1H-quinoline-3-carboxamide]",% Activity,++ (between 25% to 100%)
"CC(C)(C)c1cc(C(C)(C)C)c(NC(=O)c2c[nH]c3cccc(O)c3c2=O)cc1O [Compound 464, 5-hydroxy-N-(5-hydroxy-2,4-ditert-butyl-phenyl)-4-oxo-1H-quinoline-3-carboxamide]",EC50,< 10 µM
same,% Activity,++ (between 25% to 100%)
"CC(C)(C)OC(=O)NCc1cc(NC(=O)c2c[nH]c3ccccc3c2=O)ccc1C(C)(C)C [Compound 465, [5-[(4-oxo-1H-quinolin-3-yl)carbonylamino]-2-tert-butyl-phenyl]methylaminoformic acid tert-butyl ester]",EC50,< 10 µM
same,% Activity,++ (between 25% to 100%)
"CC(C)c1cccc(C(C)C)c1NC(=O)c1c[nH]c2ccccc2c1=O [Compound 466, N-(2,6-diisopropylphenyl)-4-oxo-1H-quinoline-3-carboxamide]",EC50,< 10 µM
same,% Activity,++ (between 25% to 100%)
"O=C(Nc1ccc2c(c1)CCO2)c1c[nH]c2ccccc2c1=O [Compound 467, N-(2,3-dihydrobenzofuran-5-yl)-4-oxo-1H-quinoline-3-carboxamide]",EC50,25 to 60 µM
same,% Activity,+ (<25%)
"Cn1cc(C(=O)Nc2ccccc2)c(=O)c2ccccc21 [Compound 468, 1-methyl-4-oxo-N-phenyl-1H-quinoline-3-carboxamide]",EC50,25 to 60 µM
same,% Activity,+ (<25%)
"O=C(Nc1ccccc1-c1ccccc1)c1c[nH]c2cc(C(F)(F)F)ccc2c1=O [Compound 469, 4-oxo-N-(2-phenylphenyl)-7-(trifluoromethyl)-1H-quinoline-3-carboxamide]",EC50,< 10 µM
same,% Activity,++ (between 25% to 100%)
"O=C(Nc1ccc(Sc2ccccc2)cc1)c1c[nH]c2ccccc2c1=O [Compound 470, 4-oxo-N-(4-phenylsulfanylphenyl)-1H-quinoline-3-carboxamide]",EC50,< 10 µM
same,% Activity,++ (between 25% to 100%)
"CCCc1ccc(NC(=O)OC)cc1NC(=O)c1c[nH]c2ccccc2c1=O [Compound 471, [3-[(4-oxo-1H-quinoline-3-yl)carbonylamino]-4-propyl-phenyl]aminoformic acid methyl ester]",EC50,< 10 µM
same,% Activity,++ (between 25% to 100%)
"CCOC(=O)Nc1ccc(CC)c(NC(=O)c2c[nH]c3ccccc3c2=O)c1 [Compound 472, [4-ethyl-3-[(4-oxo-1H-quinolin-3-yl)carbonylamino]phenyl]aminoformic acid ethyl ester]",% Activity,++ (between 25% to 100%)
"CC(C)n1cc(C(=O)Nc2ccccc2C(C)(C)C)c(=O)c2ccccc21 [Compound 473, 1-isopropyl-4-oxo-N-(2-tert-butylphenyl)-1H-quinoline-3-carboxamide]",EC50,10 to 25 µM
same,% Activity,++ (between 25% to 100%)
"Cn1c(=O)oc2ccc(NC(=O)c3c[nH]c4ccccc4c3=O)cc21 [Compound 474, N-(3-methyl-2-oxo-3H-benzooxazol-5-yl)-4-oxo-1H-quinoline-3-carboxamide]",EC50,25 to 60 µM
same,% Activity,+ (<25%)
"CC(C)(C)c1cc(C#N)c(NC(=O)c2c[nH]c3ccccc3c2=O)cc1O [Compound 476, N-(4-tert-Butyl-2-cyano-5-hydroxyphenyl)-1,4-dihydro-4-oxoquinoline-3-carboxamide]",EC50,< 10 µM
same,% Activity,++ (between 25% to 100%)
"O=C(Nc1ccc(F)cn1)c1c[nH]c2ccccc2c1=O [Compound 477, N-(5-fluoro-2-pyridyl)-4-oxo-1H-quinoline-3-carboxamide]",EC50,25 to 60 µM
same,% Activity,+ (<25%)
"CC(C)(C)c1c[nH]c2cc(NC(=O)c3c[nH]c4ccccc4c3=O)ccc12 [Compound 478, 4-oxo-N-(3-tert-butyl-1H-indol-6-yl)-1H-quinoline-3-carboxamide]",EC50,< 10 µM
same,% Activity,++ (between 25% to 100%)
"COc1cccc2[nH]cc(C(=O)Nc3ccc4cc[nH]c4c3)c(=O)c12 [Compound 479, N-(1H-indol-6-yl)-5-methoxy-4-oxo-1H-quinoline-3-carboxamide]",EC50,< 10 µM
same,% Activity,++ (between 25% to 100%)
"CCn1cc(C(=O)Nc2ccccc2)c(=O)c2cc(OC)ccc21 [Compound 480, 1-ethyl-6-methoxy-4-oxo-N-phenyl-1H-quinoline-3-carboxamide]",EC50,25 to 60 µM
same,% Activity,+ (<25%)
"O=C(Nc1ccc2ccccc2c1)c1c[nH]c2ccccc2c1=O [Compound 481, N-(2-naphthyl)-4-oxo-1H-quinoline-3-carboxamide]",EC50,< 10 µM
same,% Activity,++ (between 25% to 100%)
"CCOC(=O)NC1CCCc2ccc(NC(=O)c3c[nH]c4ccccc4c3=O)cc21 (centres unmarked) [Compound 482, [7-[(4-Oxo-1H-quinolin-3-yl)carbonylamino]tetralin-1-yl]aminoformic acid ethyl ester]",EC50,10 to 25 µM
same,% Activity,++ (between 25% to 100%)
"CC1(c2cc(F)c(NC(=O)c3cnc4ccccc4c3O)cc2O)CCCCCC1 [Compound 483, N-[2-fluoro-5-hydroxy-4-(1-methylcycloheptyl)-phenyl]-4-hydroxy-quinoline-3-carboxamide]",EC50,< 10 µM
same,% Activity,++ (between 25% to 100%)
"CNc1cc(NC(=O)c2c[nH]c3ccccc3c2=O)ccc1C(C)(C)C [Compound 484, N-(3-methylamino-4-tert-butyl-phenyl)-4-oxo-1H-quinoline-3-carboxamide]",EC50,< 10 µM
same,% Activity,++ (between 25% to 100%)
"CN(C)c1cc(NC(=O)c2c[nH]c3ccccc3c2=O)ccc1C(C)(C)C [Compound 485, N-(3-Dimethylamino-4-tert-butyl-phenyl)-4-oxo-1H-quinoline-3-carboxamide]",% Activity,++ (between 25% to 100%)
"CC(C)(C)c1cc(F)c(NC(=O)c2c[nH]c3cc(F)c(F)cc3c2=O)cc1O [Compound 486, 6,7-difluoro-N-(2-fluoro-5-hydroxy-4-tert-butyl-phenyl)-4-oxo-1H-quinoline-3-carboxamide]",EC50,< 10 µM
same,% Activity,++ (between 25% to 100%)
"CC(C)(C)c1cc(C(F)(F)F)c(NC(=O)c2c[nH]c3cccc(O)c3c2=O)cc1O [Compound 487, 5-hydroxy-N-[5-hydroxy-4-tert-butyl-2-(trifluoromethyl)phenyl]-4-oxo-1H-quinoline-3-carboxamide]",EC50,< 10 µM
same,% Activity,++ (between 25% to 100%)
"O=C(Nc1cc(N2CCCCC2)cc(C(F)(F)F)c1)c1c[nH]c2ccccc2c1=O [Compound 488, 4-oxo-N-[3-(1-piperidyl)-5-(trifluoromethyl)phenyl]-1H-quinoline-3-carboxamide]",EC50,< 10 µM
same,% Activity,++ (between 25% to 100%)
"Cc1ccc2[nH]cc(C(=O)Nc3ccc(N4CCC(C)(C)C4)cc3C(F)(F)F)c(=O)c2c1 [Compound 489, N-[4-(3,3-dimethylpyrrolidin-1-yl)-2-(trifluoromethyl)phenyl]-6-methyl-4-oxo-1H-quinoline-3-carboxamide]",EC50,< 10 µM
same,% Activity,++ (between 25% to 100%)
"CC(C)(C)c1ccc(NC(=O)c2c[nH]c3ccc(F)cc3c2=O)cc1O [Compound 490, 6-fluoro-N-(3-hydroxy-4-tert-butyl-phenyl)-4-oxo-1H-quinoline-3-carboxamide]",EC50,< 10 µM
same,% Activity,++ (between 25% to 100%)
"CC(C)(C)c1ccc(NC(=O)c2c[nH]c3cccc(O)c3c2=O)cc1F [Compound 491, N-(3-fluoro-4-tert-butyl-phenyl)-5-hydroxy-4-oxo-1H-quinoline-3-carboxamide]",EC50,< 10 µM
same,% Activity,++ (between 25% to 100%)
"COC(=O)C1CCCCN1c1ccc(NC(=O)c2c[nH]c3ccccc3c2=O)c(C(F)(F)F)c1 (centres unmarked) [Compound 492, methyl 1-[4-[(4-oxo-1H-quinolin-3-yl)carbonylamino]-3-(trifluoromethyl)phenyl]piperidine-2-carboxylate]",EC50,< 10 µM
same,% Activity,+++ (>100%)
"CC(CO)(CO)c1ccc(NC(=O)c2c[nH]c3cccc(O)c3c2=O)cc1 [Compound 493, 5-hydroxy-N-[4-[2-hydroxy-1-(hydroxymethyl)-1-methyl-ethyl]phenyl]-4-oxo-1H-quinoline-3-carboxamide]",EC50,< 10 µM
same,% Activity,++ (between 25% to 100%)
"O=C(Nc1cc2[nH]ccc2cc1C(F)(F)F)c1c[nH]c2cccc(O)c2c1=O [Compound 494, 5-hydroxy-4-oxo-N-[5-(trifluoromethyl)-1H-indol-6-yl]-1H-quinoline-3-carboxamide]",EC50,< 10 µM
same,% Activity,++ (between 25% to 100%)
"O=C(Nc1ccc2cc(C(F)(F)F)[nH]c2c1)c1c[nH]c2ccc(F)cc2c1=O [Compound 495, 6-fluoro-4-oxo-N-[2-(trifluoromethyl)-1H-indol-6-yl]-1H-quinoline-3-carboxamide]",EC50,< 10 µM
same,% Activity,++ (between 25% to 100%)
